{"source": "patent US8765096B2", "about": "“Methods and compositions for treating and diagnosing kidney disease” (Endocyte, Inc, priority 2007, dated 2014)", "key": {"[1]": {"target": "folate receptor (Homo sapiens, UniProt P15328)", "sequence (P15328 25-234)": "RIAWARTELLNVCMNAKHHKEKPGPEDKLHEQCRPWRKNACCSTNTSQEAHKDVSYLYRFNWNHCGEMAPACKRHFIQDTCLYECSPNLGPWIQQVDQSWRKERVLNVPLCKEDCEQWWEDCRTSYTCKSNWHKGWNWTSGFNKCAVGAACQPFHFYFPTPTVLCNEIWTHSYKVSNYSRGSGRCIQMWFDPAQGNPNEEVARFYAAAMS", "settings": "KB cells, 1 hour at 37° C., 100 nM 3H-folic acid, increasing competitor concentrations; folic acid = 1.0"}, "[2]": {"tested_on": "KB cells", "assay": "Cell viability in KB cells", "settings": "2, 10, and 50 nM, at 24 hours"}}, "note": "“Also recorded” adds a separate entry of the source.", "data": [{"smiles": "CO[C@H]1C[C@@H]2CC[C@@H](C)[C@@](O)(O2)C(=O)C(=O)N2CCCC[C@H]2C(=O)O[C@H]([C@H](C)C[C@@H]2CC[C@@H](O)[C@H](OC)C2)CC(=O)[C@H](C)/C=C(\\C)[C@@H](OC(=O)OCCSSC[C@H](NC(=O)[C@H](CC(=O)O)NC(=O)[C@H](CC(=O)O)NC(=O)[C@H](CCCNC(=N)N)NC(=O)[C@H](CC(=O)O)NC(=O)CC[C@H](NC(=O)c2ccc(NCc3cnc4nc(N)[nH]c(=O)c4n3)cc2)C(=O)O)C(=O)O)[C@@H](OC)C(=O)[C@H](C)C[C@H](C)/C=C/C=C/C=C/1C", "note": "[EC0371]", "values": [{"measurement": "relative affinity at the folate receptor", "setting": "[1]", "result": 0.5}, {"measurement": "cytotoxicity (cell viability)", "setting": "[2]", "result": "Neither rapamycin nor EC0371 is cytotoxic; also recorded: neither rapamycin nor EC0371 was found to be cytotoxic"}]}]}
